Data published in ChEMBL document CHEMBL5376002, “A Hybrid Antimicrobial Peptide Targeting Staphylococcus aureus with a Dual Function of Inhibiting Quorum Sensing Signaling and an Antibacterial Effect” (J Med Chem, 2023).
≈ marks a conversion by molar mass, not a printed value. Calls of active or inactive are those of the source. The calls are words filed in the database; no cut-off is given here. Numbered stars: 1 amine (or outer) side, 2 acyl side, 3 side chain; on linkers, the order of the positions; unused ones are H or OH. Bridge positions count the residues as written; N and C are the ends. Square brackets hold non-standard residues; d marks the D form. Peptide text beside a SMILES is read from it. I, II: the chains in the order shown. X1 = O=C1CC([*:2])C(=O)N1CCCCCC(=O)[*:1]; Dab = NCC[C@H](N)C(=O)O

Tests used:
Staphylococcus aureus [1] = experiment: Bactericidal activity against Staphylococcus aureus ATCC 6538p assessed as inhibition of bacterial growth incubated for 18 to 24 hrs; type: functional; settings: time 18-24 hrs
[2] = Binding affinity to AgrC-I extra-loop-I (unknown origin) assessed as change in enthalpy incubated for 10 mins by isothermal titration calorimetry analysis
[3] = Binding affinity to AgrC-I extra-loop-I (unknown origin) assessed as dissociation constant incubated for 10 mins by isothermal titration calorimetry analysis
Streptococcus pneumoniae [4] = experiment: Antibacterial activity against Streptococcus pneumoniae assessed as reduction in bacterial growth at 6.25 uM measured at 20 mins by time kill assay; type: functional, organism-based
Staphylococcus aureus [5] = experiment: Antivirulence activity against Staphylococcus aureus assessed as downregulation of hla expression level at 1 to 100 uM incubated for 24 hrs by qRT-PCR analysis; type: functional, organism-based; settings: dose 1-100 µM
[6] = system: Staphylococcus saprophyticus; experiment: Antibacterial activity against Staphylococcus saprophyticus ATCC BAA-750 assessed as inhibition of bacterial growth incubated for 18 to 24 hrs; type: functional; settings: time 18-24 hrs
Homo sapiens [7] = species: Homo sapiens; experiment: Binding affinity to AgrC-I extra-loop-II (unknown origin) assessed as change in entropy incubated for 10 mins by isothermal titration calorimetry analysis
Escherichia coli [8] = experiment: Antibacterial activity against Escherichia coli ATCC 25922 assessed as inhibition of bacterial growth incubated for 18 to 24 hrs; type: functional; settings: time 18-24 hrs
Homo sapiens [9] = species: Homo sapiens; experiment: Binding affinity to AgrC-I extra-loop-I (unknown origin) assessed as change in entropy incubated for 10 mins by isothermal titration calorimetry analysis
Staphylococcus aureus [10] = experiment: Antibacterial activity against Staphylococcus aureus ATCC 43300 assessed as inhibition of bacterial growth incubated for 18 to 24 hrs; type: functional; settings: time 18-24 hrs
Staphylococcus aureus [11] = experiment: Antibacterial activity against Staphylococcus aureus ATCC 12600 assessed as inhibition of bacterial growth incubated for 18 to 24 hrs; type: functional; settings: time 18-24 hrs
RAW264.7 = experiment: Cytotoxicity against mouse RAW264.7 cells assessed as cell viability incubated for 48 hrs by MTT assay; type: functional
Streptococcus mutans [12] = experiment: Bactericidal activity against Streptococcus mutans ATCC 25175 assessed as inhibition of bacterial growth incubated for 18 to 24 hrs; type: functional; settings: time 18-24 hrs
[13] = system: Staphylococcus saprophyticus; experiment: Bactericidal activity against Staphylococcus saprophyticus ATCC BAA-750 assessed as inhibition of bacterial growth incubated for 18 to 24 hrs; type: functional; settings: time 18-24 hrs
[14] = Toxicity in Kunming mouse infected with Staphylococcus aureus ATCC 6538p assessed as animal survival rate 45 mg/kg, ip pre-infected with bacteria for 1 hr followed by compound administration and measured after 7 days; type: organism-based; settings: in vivo, 168 h, time 7 day
Erythrocyte = experiment: Hemolytic activity in rat RBC assessed as hemolysis measured after 20 hrs; type: toxicity, cell-based
Staphylococcus aureus [15] = experiment: Inhibition of biofilm formation in Staphylococcus aureus at 0.39 uM incubated for 24 hrs by crystal violet staining based analysis; type: functional, organism-based
[16] = system: Staphylococcus epidermidis; experiment: Antibacterial activity against Staphylococcus epidermidis ATCC 12228 assessed as inhibition of bacterial growth incubated for 18 to 24 hrs; type: functional; settings: time 18-24 hrs
Streptococcus pneumoniae [17] = experiment: Antibacterial activity against Streptococcus pneumoniae ATCC 49619 assessed as inhibition of bacterial growth incubated for 18 to 24 hrs; type: functional; settings: time 18-24 hrs
Staphylococcus aureus [18] = experiment: Antibacterial activity against Staphylococcus aureus assessed as reduction in bacterial growth at 6.25 uM measured at 20 mins by time kill assay; type: functional, organism-based
[19] = system: Staphylococcus saprophyticus; experiment: Antibacterial activity against Staphylococcus saprophyticus assessed as reduction in bacterial growth at 6.25 uM measured at 20 mins by time kill assay; type: functional, organism-based
Staphylococcus aureus [20] = experiment: Antivirulence activity against Staphylococcus aureus assessed as downregulation of RNAIII expression level at 1 to 100 uM incubated for 24 hrs by qRT-PCR analysis; type: functional, organism-based; settings: dose 1-100 µM
Homo sapiens [21] = species: Homo sapiens; experiment: Binding affinity to AgrC-I extra-loop-III (unknown origin) assessed as change in entropy incubated for 10 mins by isothermal titration calorimetry analysis
[22] = Toxicity in Kunming mouse infected with Staphylococcus aureus ATCC 6538p assessed as weight loss 15 to 45 mg/kg, ip pre-infected with bacteria for 1 hr followed by compound administration and measured after 3 days; type: organism-based; settings: in vivo, 72 h, dose 15-45 mg/kg, time 3 day
[23] = Inhibition of quorum sensing system in Staphylococcus saprophyticus ATCC BAA-750 assessed as downregulation of RNAIII expression level at 0.78 uM incubated for 24 hrs by qRT-PCR analysis
[24] = Binding affinity to AgrC-I extra-loop-III (unknown origin) assessed as dissociation constant incubated for 10 mins by isothermal titration calorimetry analysis
Staphylococcus aureus [25] = experiment: Antivirulence activity against Staphylococcus aureus assessed as downregulation of psm-alpha expression level at 1 to 100 uM incubated for 24 hrs by qRT-PCR analysis; type: functional, organism-based; settings: dose 1-100 µM
Streptococcus pneumoniae [26] = experiment: Bactericidal activity against Streptococcus pneumoniae ATCC 49619 assessed as inhibition of bacterial growth incubated for 18 to 24 hrs; type: functional; settings: time 18-24 hrs
Escherichia coli [27] = experiment: Antibacterial activity against Escherichia coli assessed as reduction in bacterial growth at 6.25 uM measured at 20 mins by time kill assay; type: functional, organism-based
Escherichia coli [28] = experiment: Bactericidal activity against Escherichia coli ATCC 25922 assessed as inhibition of bacterial growth incubated for 18 to 24 hrs; type: functional; settings: time 18-24 hrs
[29] = Inhibition of quorum sensing system in Staphylococcus aureus ATCC 6538p assessed as downregulation of RNAIII expression level at 0.78 uM incubated for 24 hrs by qRT-PCR analysis
Homo sapiens [30] = species: Homo sapiens; experiment: Binding affinity to AgrC-I extra-loop-III (unknown origin) assessed as gibbs free energy change incubated for 10 mins by isothermal titration calorimetry analysis
[31] = system: Staphylococcus epidermidis; experiment: Antibacterial activity against Staphylococcus epidermidis assessed as reduction in bacterial growth at 6.25 uM measured at 20 mins by time kill assay; type: functional, organism-based
Cell membrane = experiment: Induction of cell membrane damage in Staphylococcus aureus ATCC 6538p assessed as increase in nucleic acid leakage measured up to 30 mins by UV-spectrophotometer analysis; type: subcellular
Staphylococcus aureus [32] = experiment: Bactericidal activity against Staphylococcus aureus ATCC 43300 assessed as inhibition of bacterial growth incubated for 18 to 24 hrs; type: functional; settings: time 18-24 hrs
Staphylococcus aureus [33] = experiment: Antivirulence activity against Staphylococcus aureus ATCC 6538p assessed as downregulation of RNAIII expression level at 2.5 uM measured for 28 passages by qRT-PCR analysis; type: functional, organism-based
[34] = Toxicity in Kunming mouse infected with Staphylococcus aureus ATCC 6538p assessed as body weight gain 15 to 45 mg/kg, ip pre-infected with bacteria for 1 hr followed by compound administration and measured after 5 days; type: organism-based; settings: in vivo, 120 h, dose 15-45 mg/kg, time 5 day
[35] = Binding affinity to AgrC-I extra-loop-III (unknown origin) assessed as change in enthalpy incubated for 10 mins by isothermal titration calorimetry analysis
Streptococcus mutans [36] = experiment: Bactericidal activity against Streptococcus mutans UA159 assessed as inhibition of bacterial growth incubated for 18 to 24 hrs; type: functional; settings: time 18-24 hrs
Staphylococcus aureus [37] = experiment: Antibacterial activity against Staphylococcus aureus ATCC 6538p assessed as inhibition of bacterial growth incubated for 18 to 24 hrs; type: functional; settings: time 18-24 hrs
[38] = Inhibition of quorum sensing system in Staphylococcus epidermidis ATCC 12228 assessed as downregulation of RNAIII expression level at 0.78 uM incubated for 24 hrs by qRT-PCR analysis

CC[C@H](C)[C@H](NC(=O)CNC(=O)CNC(=O)[C@@H](N)CSC1CC(=O)N(CCCCCC(=O)NCC(=O)N[C@H](C(=O)N[C@@H](CCCCN)C(=O)N[C@@H](CC(N)=O)C(=O)N[C@@H](CC(C)C)C(=O)N[C@@H](Cc2c[nH]c3ccccc23)C(=O)N[C@@H](CCCCN)C(=O)N[C@@H](CCCCN)C(=O)N[C@@H](CCSC)C(=O)N[C@H](C(=O)N[C@@H](CCCCN)C(=O)N[C@@H](CC(C)C)C(=O)N[C@@H](Cc2c[nH]c3ccccc23)C(=O)N[C@@H](Cc2ccc(O)cc2)C(=O)O)[C@@H](C)CC)[C@@H](C)CC)C1=O)C(=O)N[C@@H](CC(N)=O)C(=O)N[C@H]1CCNC(=O)[C@H](CC(C)C)NC(=O)[C@H](CC(C)C)NC(=O)[C@H](Cc2ccccc2)NC(=O)[C@H](C)NC1=O (stereo partly specified) (I: GIKNLWKKMIKLWY-OH / II: H-CGGIN[Dab]AFLL; linker I:N-II:1 via X1; lactam II:6-II:C)
MBC (Staphylococcus aureus [1]): 3.13 µM (≈ 9.4 µg/mL) | deltaH [2]: -4.7 kcal/mol | Kd [3]: 0.001 nM | Activity (Streptococcus pneumoniae [4]): inactive | Activity (Staphylococcus aureus [5]): Active | MIC [6]: 3.13 µM (≈ 9.4 µg/mL) | -TdeltaS (Homo sapiens [7]): 16.4 kcal/mol | MIC (Escherichia coli [8]): 3.13 µM (≈ 9.4 µg/mL) | -TdeltaS (Homo sapiens [9]): -11.7 kcal/mol | MIC (Staphylococcus aureus [10]): 6.25 µM (≈ 18.8 µg/mL) | MIC (Staphylococcus aureus [11]): 3.13 µM (≈ 9.4 µg/mL) | CC50 (RAW264.7): 71100 nM | MBC (Streptococcus mutans [12]): 3.13 µM (≈ 9.4 µg/mL) | MBC [13]: 3.13 µM (≈ 9.4 µg/mL) | Activity [14]: 50% | Activity (Erythrocyte): Toxic | inhibition (Staphylococcus aureus [15]): Active | MIC [16]: 1.56 µM (≈ 4.69 µg/mL) | MIC (Streptococcus pneumoniae [17]): 6.25 µM (≈ 18.8 µg/mL) | Activity (Staphylococcus aureus [18]): Active | Activity [19]: inactive | Activity (Staphylococcus aureus [20]): Active | -TdeltaS (Homo sapiens [21]): -16.3 kcal/mol | Activity [22]: Non-Toxic | inhibition [23]: inactive | Kd [24]: 0.001 nM | Activity (Staphylococcus aureus [25]): Active | MBC (Streptococcus pneumoniae [26]): 6.25 µM (≈ 18.8 µg/mL) | Activity (Escherichia coli [27]): inactive | MBC (Escherichia coli [28]): 12.5 µM (≈ 37.5 µg/mL) | inhibition [29]: Active | deltaG (Homo sapiens [30]): -16.4 kcal/mol | Activity [31]: inactive | Activity (Cell membrane): Active | MBC (Staphylococcus aureus [32]): 6.25 µM (≈ 18.8 µg/mL) | Activity (Staphylococcus aureus [33]): Active | Activity [34]: Non-Toxic | deltaH [35]: inactive | MBC (Streptococcus mutans [36]): 6.25 µM (≈ 18.8 µg/mL) | MIC (Staphylococcus aureus [37]): 3.13 µM (≈ 9.4 µg/mL) | inhibition [38]: inactive
